Columns and labels:
HIV-1899A strain [1] = experiment: Antiviral effect in MT-4 cells infected with HIV-1 (MTT, cytopathic effect, syncytium); assay type: cell-based; settings: 0.01 TCD50/cell, 5 days
Procedure: Cells. MT-4 human lymphoblastoid cells were used. The cells were incubated in RPMI 1640 medium with 10% serum of cow embryos, 100 μg/ml of gentamicin.
Viruses. HIV-1899A strain was used as the source of the virus.
The drug. Samples of drugs dissolved in dimethylsulfoxide were studied.
Study of the antiviral effect of the drug.
The investigated medicinal products were added to the cells at various doses with simultaneous infection with the virus at a dose of 0.01 TCD50/cell. The cell cultures were incubated at 37° C. in the atmosphere with 5% of CO2 and at 98% humidity for 5 days. The results were recorded by staining the cells with tetrazolium dye (MTT method) with spectrophotometry and light microscopy: investigation of cytopathic effect of the virus (CPD) and virus-induced formation of syncytium (syncytium is a conglomerate of several cells with a common cell membrane formed as a result of fusion of their membranes).
The degree of protection of cells from the cyto-destructive effect of the virus was determined by the following formula:
[formula] where • A is the number of viable cells in the experimental group; • B is the same in the infected culture (virus control); • K is the same in the uninfected culture (cell control).

HIV-1899A strain [2] = experiment: Joint action with anti-HIV drugs: cell protection in HIV-1 infected MT-4 cells (MTT); assay type: cell-based
Procedure: MT-4 human lymphoblastoid cells were used. The cells were cultured in RPMI 1640 medium with 10% serum of cow embryos, 100 μg/ml gentamicin.
The strain of HIV-1899A was used as a source of the virus.
The drug. Samples of drugs dissolved in dimethylsulfoxide were studied. As an antiretroviral reference drug, Raltegravir (prototype) was used.
Study of the antiviral action of the drug (cell protection).
The investigated drugs were added to the cells at various doses with simultaneous infection with the virus at a dose of 0.01 TCD50/cell. Cell cultures were incubated at 37° C. in the atmosphere with 5% CO2 and 98% humidity for 5 days. The results were recorded by staining the cells with tetrazolium dye (MTT method) with spectrophotometry and light microscopy: investigation of cytopathic effect of the virus (CPD) and virus-induced formation of syncytium (syncytium is a conglomerate of several cells with a common cell membrane formed as a result of fusion of their membranes).

[3] = test system: MT-4 human lymphoblastoid cells; experiment: Cytotoxic effect of the drug on uninfected MT-4 cells (viability by dye); assay type: cell-based; settings: 5 days
Procedure: Cells. MT-4 human lymphoblastoid cells were used. […] The drug. Samples of drugs dissolved in dimethylsulfoxide were studied. Study of the cytotoxic effect of the drug. The investigated medicinal product was added to the cells in various concentrations. […] Recording of the results: determination of the viability and the number of the cells by means of a dye.

Hepatitis B virus (HBV) = experiment: Amount of extracellular HBV DNA in HepG2.2.15 culture medium (RT-PCR); assay type: cell-based; settings: 5 μg/ml, HepG2.2.15 cells, 5 days; untreated control 4.42 +/− 0.28
Procedure: HepG2.2.15 line cells infected with Hepatitis B virus were grown in DMEM medium supplemented with 10% bovine serum at 5% CO2, 37° C.
Analysis of the amount of extracellular HBV of the DNA.
After 5 days of HepG2.2.15 incubation the culture medium was selected, the cells were separated by centrifugation, and the DNA was isolated by the Klintschar and Neuhuber method (Klintschar and Neuhuber, 2000). Quantitation of HBV was performed using RT-PCR.

Cc1nnc(C(=O)NC(C)(C)c2nc(C(=O)NCc3ccc(F)cc3)c(O)c(=O)n2C)o1 [Raltegravir, reference compound]
HIV 1 infection Cytopathic effect of the virus, % (HIV-1899A strain [1]; 10 μg/ml): 0.0-0.0%
HIV 1 infection Protection of cells, % (HIV-1899A strain [1]; 10 μg/ml): 90%
HIV 1 infection Cytopathic effect of the virus, % (HIV-1899A strain [1]; 30 μg/ml): 0.0-0.0%
HIV 1 infection Protection of cells, % (HIV-1899A strain [1]; 30 μg/ml): 100%
HIV 1 infection Cytopathic effect of the virus, % (HIV-1899A strain [1]; 50 μg/ml): 0.0%
Protection of cells, % (HIV-1899A strain [2]; Raltegravir alone, 10 μg/ml): 23%

O=[N+]([O-])c1ccc(C2c3c(O)nc(S)nc3Oc3nc(Cl)nc(O)c32)cc1 (stereo not shown) [Derivative 2, 2-chloro-8-sulfhydryl-5-(4-nitrophenyl)-5H-pyrimido [5′,4′:5,6]pyrano[2,3-d]pyrimidine-4.6-diol]
Without virus (cytotoxicity) Viability of cells, % ([3]; 10 μg/ml): 100.0%
Without virus (cytotoxicity) Viability of cells, % ([3]; 30 μg/ml): 100.0%
Without virus (cytotoxicity) Viability of cells, % ([3]; 50 μg/ml): 100.0%
HIV 1 infection Cytopathic effect of the virus, % (HIV-1899A strain [1]; 10 μg/ml): 0.0-0.0%
HIV 1 infection Protection of cells, % (HIV-1899A strain [1]; 10 μg/ml): 100%
HIV 1 infection Cytopathic effect of the virus, % (HIV-1899A strain [1]; 30 μg/ml): 96-100%
HIV 1 infection Protection of cells, % (HIV-1899A strain [1]; 30 μg/ml): 0%
HIV 1 infection Cytopathic effect of the virus, % (HIV-1899A strain [1]; 50 μg/ml): 55-80%
HIV 1 infection Protection of cells, % (HIV-1899A strain [1]; 50 μg/ml): 10%
HBV Log10 IU/ml (amount of extracellular DNA HBV) (Hepatitis B virus (HBV)): 2.65 +/− 0.19 Log10 IU/ml

Oc1nc(Cl)nc2c1C(c1cccc(Cl)c1)c1c(O)nc(Cl)nc1O2 [Derivative 6]
Without virus (cytotoxicity) Viability of cells, % ([3]; 10 μg/ml): 100.0%
Without virus (cytotoxicity) Viability of cells, % ([3]; 30 μg/ml): 100.0%
Without virus (cytotoxicity) Viability of cells, % ([3]; 50 μg/ml): 100.0%
HIV 1 infection Cytopathic effect of the virus, % (HIV-1899A strain [1]; 10 μg/ml): 57.5-80.0%
HIV 1 infection Protection of cells, % (HIV-1899A strain [1]; 10 μg/ml): 10.7%
HIV 1 infection Cytopathic effect of the virus, % (HIV-1899A strain [1]; 30 μg/ml): 37.5-62.5%
HIV 1 infection Protection of cells, % (HIV-1899A strain [1]; 30 μg/ml): 71.7%
HIV 1 infection Cytopathic effect of the virus, % (HIV-1899A strain [1]; 50 μg/ml): 0.0-0.0%
HIV 1 infection Protection of cells, % (HIV-1899A strain [1]; 50 μg/ml): 90.5%

Oc1nc(Cl)nc2c1C(c1ccccc1)c1c(O)nc(Cl)nc1O2 [Derivative 5]
Without virus (cytotoxicity) Viability of cells, % ([3]; 10 μg/ml): 100.0%
Without virus (cytotoxicity) Viability of cells, % ([3]; 30 μg/ml): 100.0%
Without virus (cytotoxicity) Viability of cells, % ([3]; 50 μg/ml): 100.0%
HIV 1 infection Cytopathic effect of the virus, % (HIV-1899A strain [1]; 10 μg/ml): 0.0-0.0%
HIV 1 infection Protection of cells, % (HIV-1899A strain [1]; 10 μg/ml): 100%
HIV 1 infection Cytopathic effect of the virus, % (HIV-1899A strain [1]; 30 μg/ml): 57.5-80.0%
HIV 1 infection Protection of cells, % (HIV-1899A strain [1]; 30 μg/ml): 10.7%
HIV 1 infection Cytopathic effect of the virus, % (HIV-1899A strain [1]; 50 μg/ml): 37.5-62.5%
HIV 1 infection Protection of cells, % (HIV-1899A strain [1]; 50 μg/ml): 71.7%

O=[N+]([O-])c1ccc(C2c3c(O)nc(Cl)nc3Oc3nc(Cl)nc(Cl)c32)cc1 (stereo not shown) [Derivative 3, 2,6,8-trichloro-5-(4-nitrophenyl)-5H-pyrimido [5′, 4′:5,6] pyrano [2,3-d] pyrimidin-4-ol]
Without virus (cytotoxicity) Viability of cells, % ([3]; 10 μg/ml): 100.0%
Without virus (cytotoxicity) Viability of cells, % ([3]; 30 μg/ml): 100.0%
Without virus (cytotoxicity) Viability of cells, % ([3]; 50 μg/ml): 100.0%
HIV 1 infection Cytopathic effect of the virus, % (HIV-1899A strain [1]; 10 μg/ml): 15-70%
HIV 1 infection Protection of cells, % (HIV-1899A strain [1]; 10 μg/ml): 50%
HIV 1 infection Cytopathic effect of the virus, % (HIV-1899A strain [1]; 30 μg/ml): 18-92%
HIV 1 infection Protection of cells, % (HIV-1899A strain [1]; 30 μg/ml): 30%
HIV 1 infection Cytopathic effect of the virus, % (HIV-1899A strain [1]; 50 μg/ml): 10-40%
HIV 1 infection Protection of cells, % (HIV-1899A strain [1]; 50 μg/ml): 65%
melting point: 265 to 267 °C

Cc1cccc(C)c1OCC(=O)N[C@@H](Cc1ccccc1)[C@@H](O)C[C@H](Cc1ccccc1)NC(=O)[C@H](C(C)C)N1CCCNC1=O [Lopinavir]
Protection of cells, % (HIV-1899A strain [2]; Lopinavir alone, 2.5 μg/ml): 17%

Cc1cn([C@H]2C[C@H](N=[N+]=[N-])[C@@H](CO)O2)c(=O)[nH]c1=O [Retrovir]
Protection of cells, % (HIV-1899A strain [2]; Retrovir alone, 0.003 μg/ml): 13%

O=[N+]([O-])c1ccc(C2C3=C(O)NC(O)(S)N=C3Oc3nc(Cl)nc(O)c32)cc1 (stereo not shown) [Derivative 4, 2-chloro-8-sulfhydryl-5-(4-nitrophenyl)-5H-pyrimido [5′,4′:5,6]pyrano[2,3-d]pyrimidine-4,6,8-triol]
Without virus (cytotoxicity) Viability of cells, % ([3]; 10 μg/ml): 100.0%
Without virus (cytotoxicity) Viability of cells, % ([3]; 30 μg/ml): 100.0%
Without virus (cytotoxicity) Viability of cells, % ([3]; 50 μg/ml): 100.0%
HIV 1 infection Cytopathic effect of the virus, % (HIV-1899A strain [1]; 10 μg/ml): 0.0-0.0%
HIV 1 infection Protection of cells, % (HIV-1899A strain [1]; 10 μg/ml): 95%
HIV 1 infection Cytopathic effect of the virus, % (HIV-1899A strain [1]; 30 μg/ml): 15-60%
HIV 1 infection Protection of cells, % (HIV-1899A strain [1]; 30 μg/ml): 50%
HIV 1 infection Cytopathic effect of the virus, % (HIV-1899A strain [1]; 50 μg/ml): 0.0-0.0%
HIV 1 infection Protection of cells, % (HIV-1899A strain [1]; 50 μg/ml): 90%
melting point: 270 °C (dec.)

O=[N+]([O-])c1ccc(C2c3c(O)nc(Cl)nc3Oc3nc(Cl)nc(O)c32)cc1 [Derivative 1]
Without virus (cytotoxicity) Viability of cells, % ([3]; 10 μg/ml): 100.0%
Without virus (cytotoxicity) Viability of cells, % ([3]; 30 μg/ml): 100.0%
Without virus (cytotoxicity) Viability of cells, % ([3]; 50 μg/ml): 100.0%
HIV 1 infection Cytopathic effect of the virus, % (HIV-1899A strain [1]; 10 μg/ml): 0.0-0.0%
HIV 1 infection Protection of cells, % (HIV-1899A strain [1]; 10 μg/ml): 100%
HIV 1 infection Cytopathic effect of the virus, % (HIV-1899A strain [1]; 30 μg/ml): 0.0-0.0%
HIV 1 infection Protection of cells, % (HIV-1899A strain [1]; 30 μg/ml): 90%
HIV 1 infection Cytopathic effect of the virus, % (HIV-1899A strain [1]; 50 μg/ml): 0.0-0.0%
HIV 1 infection Protection of cells, % (HIV-1899A strain [1]; 50 μg/ml): 100%
HBV Log10 IU/ml (amount of extracellular DNA HBV) (Hepatitis B virus (HBV)): 2.58 +/− 0.33 Log10 IU/ml

COc1ccc(C2c3c(O)nc(Cl)nc3Oc3nc(Cl)nc(O)c32)cc1 [Derivative 7]
Without virus (cytotoxicity) Viability of cells, % ([3]; 10 μg/ml): 100.0%
Without virus (cytotoxicity) Viability of cells, % ([3]; 30 μg/ml): 100.0%
Without virus (cytotoxicity) Viability of cells, % ([3]; 50 μg/ml): 100.0%
HIV 1 infection Cytopathic effect of the virus, % (HIV-1899A strain [1]; 10 μg/ml): 12-65%
HIV 1 infection Protection of cells, % (HIV-1899A strain [1]; 10 μg/ml): 45%
HIV 1 infection Cytopathic effect of the virus, % (HIV-1899A strain [1]; 30 μg/ml): 5-15%
HIV 1 infection Protection of cells, % (HIV-1899A strain [1]; 30 μg/ml): 80%
HIV 1 infection Cytopathic effect of the virus, % (HIV-1899A strain [1]; 50 μg/ml): 0.0-0.0%
HIV 1 infection Protection of cells, % (HIV-1899A strain [1]; 50 μg/ml): 100%
HBV Log10 IU/ml (amount of extracellular DNA HBV) (Hepatitis B virus (HBV)): 2.74 +/− 0.25 Log10 IU/ml

— patent publication US10253037B2, “Drug with antiviral activity (variants)” (priority 2015, dated 2019)
